Laboratory results published in patent publication US20210395226A1, “SUBSTITUTED ARYL COMPOUND AND PREPARATION METHOD THEREFOR AND USE THEREOF” (SICHUAN KELUN-BIOTECH BIOPHARMACEUTICAL CO., LTD., priority 2018, published 2021).

Target: T1, ADORA2a/CHOK1 cells (Homo sapiens, UniProt P29274)
T1 construct: host or cells: CHO-K1
Test: Inhibitory activity for ADORA2a/CHOK1 cells (cAMP detection, adenosine as agonist)
Assay type: cell-based
Details: for inhibition at 0.1 µM: CHO-K1, 100 nM compound, read-out: Inhibition rate at 100 nM; for inhibition at 1 µM: CHO-K1, 1000 nM compound, read-out: Inhibition rate at 1000 nM
Procedure: Test Example 2: Study on Inhibitory Activity for ADORA2a/CHOK1 Cells
ADORA2a/CHOK1 cells (Cobai, CBP71017).
FBS was added to Ham's F-12 medium to a concentration of 10% (v/v), Zeocin was added to a final concentration of 200 μg/mL, and Hygromycin B was added to a final concentration of 100 μg/mL, and the resulting mixture was stored at 4° C. for later use.
A certain amount of adenosine was precisely weighed and placed into a 1.5 mL EP tube, then a certain volume of cell culture medium was added, the resulting mixture was incubated at 37° C. for dissolution, thereby a 10 mM stock solution was prepared. The stock solution was diluted with cell culture medium at 1:1000 to get 10 μM adenosine solution.
The compound to be tested was dissolved in DMSO to form a 10 mM stock solution, and the stock solution was stored in a refrigerator at 4° C. for later use. The stock solution was diluted with the 10 μM of adenosine solution to 2000 nM or 200 nM for later test.
(1) CHO-K1 cells stably expressing ADORA2A receptor were cultured in a 37° C., 5% CO2 cell incubator. When the cell confluence reached about 80%, the cells were digested by trypsin, dispersed and counted; (2) the cell concentration was adjusted to 6×10^5 cells/mL according to the counting results; (3) the cells was inoculated into a white 384-well cell culture plate at 5 μL per well (about 3000 cells/well).
All groups were provided with multiple wells, the adenosine-free cell culture medium was added to the wells of the Blank group (5 μL/well); 10 μM adenosine solution was added to the wells of the Agonist group (5 μL/well); the diluted compound was added to the wells of the test compound group (5 μL/well). After the addition of the compound was completed, the 384-well plate was centrifuged at 2500 rpm for 30 seconds to fully mix the compound and the medium, then placed in a 25° C. incubator and incubated for 30 min.
A certain volume of cAMP-d2 was taken, and diluted by adding Lysis & Detection Buffer at the ratio of 1:5 to prepare Solution A.
A certain volume of cAMP-Cryptate was taken, and diluted by adding Lysis & Detection Buffer at the ratio of 1:5 to prepare Solution B.
(2) After 30 min of incubation in step 2 was completed, addition of detection solution was carried out. The 384-well plate was taken out, 5 μL of Solution A was added to each well, and then 5 μL of Solution B was added to each well, then the 384-well plate was covered with sealing membrane, centrifuged at 2500 rpm for 30 s (to fully mix the detection solution and medium), and incubated in a thermostat at 25° C. for 1 h.
After the incubation, the 384-well plate was taken out, and detected by PHERA Star FS to read data, detection wavelength: 620 nm/665 nm.
inhibition rate %=(1−(RCompound−RBlank)/(RAgonist−RBlank))*100%
wherein, RCompound represented the R Value of the test compound group, RAgonist represented the R value of the Agonist group, and RBlank represented the R value of the Blank group.

T1 sequence (P29274 whole entry): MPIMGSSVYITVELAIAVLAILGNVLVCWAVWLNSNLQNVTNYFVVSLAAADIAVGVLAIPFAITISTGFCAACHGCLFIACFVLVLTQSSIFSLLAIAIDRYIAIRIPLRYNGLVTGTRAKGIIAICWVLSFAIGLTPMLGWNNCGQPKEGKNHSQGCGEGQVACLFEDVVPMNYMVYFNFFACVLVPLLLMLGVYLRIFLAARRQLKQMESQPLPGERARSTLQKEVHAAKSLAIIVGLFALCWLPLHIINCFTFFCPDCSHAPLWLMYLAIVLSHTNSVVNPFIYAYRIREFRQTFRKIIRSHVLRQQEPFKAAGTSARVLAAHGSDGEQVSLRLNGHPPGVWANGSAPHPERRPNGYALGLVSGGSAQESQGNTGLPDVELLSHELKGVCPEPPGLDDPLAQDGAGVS

Row | Structure (SMILES) | inhibition at 0.1 µM [%] | inhibition at 1 µM [%]
1 | Cc1ncnc2ccc(-c3cnc(NC(=O)N4CCOCC4)nc3-c3ccc(F)cc3)cc12 [Compound 11, N-(4-(4-fluorophenyl)-5-(4-methylquinazolin-6-yl)pyrimidin-2-yl) morpholine-4-carboxamide] | 72 | 112
2 | Cc1cc(-c2cnc(NC(=O)N3CCOCC3)nc2-c2ccc(F)cc2)cc(Cl)n1 [Compound 19, N-(5-(2-chloro-6-methylpyridin-4-yl)-4-(4-fluorophenyl)pyrimidin-2-yl) morpholine-4-carboxamide] | 33.9 | 94.4
